For the test, the system named is C. elegans.

Experimental: NGM buffer is NGM agar without agar, peptone, or cholesterol.
A moat solution of 100 mM CuSO4 was prepared, which was approximately in osmotic equilibrium with the agar medium. The moat solution was added to the moats by pipette.

On to `O=S(=O)([O-])[O-].[Cu+2]` [copper sulfate], for which, for the setting “after 3 days, moat containing 100 mM copper sulfate, NGM liquid moat as comparison (about 20%)”, the worms escaped was 5%. Moreover, the “preventing animals from leaving their wells (fraction of worms escaping wells as a function of time)” value (moat containing 100 mM CuSO4, n=96, versus moat containing NGM buffer, FIG. 7b) was “superior”.

The values above are taken from patent US11795423B2, “Micro-fabricated multi-well chips for long term automated imaging of C. elegans growth and behavior” (THE TRUSTEES OF THE UNIVERSITY OF PENNSYLVANIA, priority 2014, dated 2023).
